According to patent US4761414A, “Substituted 1H-pyrimido[1,2-a-]-pyrido[3,4-e]pyrazine 6 oxides” (G. D. Searle & Co., priority 1986, dated 1988):
In brackets after ≈: the same amount, converted by molar mass. Read-outs that look alike come from different tables or passages of the source.

Columns and labels:
B. fragilis NCTC 10581 = test: MIC/MBC against Bacteroides fragilis strain A (96-well microtitre plates, anaerobic chamber); type: cell-based; conditions: Bacteroides fragilis; for MBC: NCTC10581, 99.9% reduction in viable count; for MIC: NCTC10581, 48 h, 48 hours, 37° C., anaerobic
Description: (§1) The screening panel utilized in this Example consisted of 5 strains of Bacteroides fragilis. All assays were carried out in 96-well microtitre plates. If an isolate was obtained from either a culture collection or clinical source, the isolate was immediately inoculated into Wilkens-Chalgren broth (Oxoid) and incubated at 37° C. in an anaerobic chamber in an atmosphere of 85% nitrogen, 10% carbon dioxide, and 5% hydrogen for 48 hours. At the end of this time, the viable count was about 10^12 organisms/ml broth. A 1 ml aliquot of each culture was placed in an ampoule and quick frozen in acetone-dry ice mixture and stored in liquid nitrogen. When an inoculum was utilized in an assay, one of the ampoules was thawed and diluted with fresh broth to yield a suspension having a count of 5×10^5 organisms/ml. A 100 μl aliquot of this suspension was inoculated into each well of the microtitre plate. A 2 mg sample of the test compound was dissolved in 0.2 ml of a suitable solvent such as dimethylsulfoxide, polyethylene glycol 200 or methanol. […] After addition of the test solution the final inoculum level was 10^5 cells/ml. The plates were incubated for 48 hours at 37° C. in the anaerobic chamber. The Minimum Inhibitory Concentration (MIC) was read visually. The MIC is defined as the lowest concentration at which there is no detectable growth. The Minimum Bactericidal Concentration (MBC) was determined by taking 50 μl aliquot from each well and placing it in fresh medium. […] The strains of Bacteroides fragilis utilized in the above procedure are identified by letter in accordance with the following legend: |A B. fragilis NCTC 10581

B. fragilis NCTC 9344 = test: MIC/MBC against Bacteroides fragilis strain C; type: cell-based; conditions: for MBC: NCTC9344, 99.9% reduction in viable count; for MIC: NCTC9344, 48 h, 48 hours, 37° C., anaerobic
Description: as §1, with “|C” for “|A”, “9344” for “10581”

[1] = tested on: B. fragilis MZ-R ATCC 11295; test: MIC/MBC against Bacteroides fragilis strain D; type: cell-based; conditions: for MBC: ATCC11295, 99.9% reduction in viable count; for MIC: ATCC11295, 48 h, 48 hours, 37° C., anaerobic
Description: The screening panel utilized in this Example consisted of 5 strains of Bacteroides fragilis. All assays were carried out in 96-well microtitre plates. If an isolate was obtained from either a culture collection or clinical source, the isolate was immediately inoculated into Wilkens-Chalgren broth (Oxoid) and incubated at 37° C. in an anaerobic chamber in an atmosphere of 85% nitrogen, 10% carbon dioxide, and 5% hydrogen for 48 hours. At the end of this time, the viable count was about 10^12 organisms/ml broth. A 1 ml aliquot of each culture was placed in an ampoule and quick frozen in acetone-dry ice mixture and stored in liquid nitrogen. When an inoculum was utilized in an assay, one of the ampoules was thawed and diluted with fresh broth to yield a suspension having a count of 5×10^5 organisms/ml. A 100 μl aliquot of this suspension was inoculated into each well of the microtitre plate. A 2 mg sample of the test compound was dissolved in 0.2 ml of a suitable solvent such as dimethylsulfoxide, polyethylene glycol 200 or methanol. […] After addition of the test solution the final inoculum level was 10^5 cells/ml. The plates were incubated for 48 hours at 37° C. in the anaerobic chamber. The Minimum Inhibitory Concentration (MIC) was read visually. The MIC is defined as the lowest concentration at which there is no detectable growth. The Minimum Bactericidal Concentration (MBC) was determined by taking 50 μl aliquot from each well and placing it in fresh medium.

B. fragilis 23745 = conditions: Bacteroides fragilis, 23745, in Mus musculus, po, 48 h, log CFU/ml liver homogenate, test compound
[2] = tested on: Clostridium perfringens NCTC 8237; test: microbe, parasite or virus in culture; type: cell-based; conditions: procedures of Example 40
[3] = tested on: Costridium difficile NCIB 10666; test: MIC vs panel of anaerobes; type: cell-based, C. difficile; conditions: Clostridioides difficile, NCIB10666, C. difficile NCIB 10666; procedures of Example 40; read-out: MIC
[4] = tested on: Campylobacter fetus ss. jejuni NCTC 10842; test: MIC vs panel of anaerobes; type: cell-based; conditions: NCTC10842, procedures of Example 40
[5] = tested on: Fusobacterium necrophorum ATCC 11295; test: MIC vs panel of anaerobes; type: cell-based; conditions: Fusobacterium necrophorum, ATCC11295, Fusobacterium necrophorum ATCC 11295; procedures of Example 40; read-out: MIC
[6] = tested on: Propionebacterium acnes NCTC 737; test: MIC vs panel of anaerobes; type: cell-based; conditions: procedures of Example 40
[7] = read-out: DOSE GIVING 1 LOG REDUCTION (molar), p.o., after infection and twice daily for 2 days
[8] = read-out: DOSE GIVING 1 LOG REDUCTION, p.o., after infection and twice daily for 2 days
[9] = Clostridium perfringens, NCTC8237, Clostridium perfringens NCTC 8237

SMILES | MBC (B. fragilis NCTC 10581) [mg/L] | MIC (B. fragilis NCTC 10581) [mg/L] | MBC (B. fragilis NCTC 9344) [mg/L] | MIC (B. fragilis NCTC 9344) [mg/L] | MBC [1] [mg/L] | MIC [1] [mg/L] | ED (1 log reduction) (B. fragilis 23745; [7]) [µmol/kg] | ED (1 log reduction) (B. fragilis 23745; [8]) [mg/kg] | MIC [2, 9] [mg/L] | MIC [3] [mg/L] | MIC [4] [mg/L] | MIC [5] [mg/L] | MIC [6] [mg/L] | MIC ([2]; Clostridium perfringens NCTC 8237) [mg/L]
CC1(C)CN=C2C(c3ccc(F)cc3)=[N+]([O-])c3cnccc3N2C1 [Example 33, 2,3-Dihydro-2,2-dimethyl-5-(4-fluorophenyl)-1H-pyrimido[1,2-a]pyrido[3,4-e]pyrazine 6-oxide] | < 0.8 | < 0.8 | < 0.8 | < 0.8 | < 0.8 | < 0.8 | 2.85 | 0.9 | – | – | – | – | – | –
CCCC1(C)CN=C2C(c3ccccc3)=[N+]([O-])c3cccnc3N2C1 (centres unmarked) [Example 28, 2,3-Dihydro-2-methyl-5-phenyl-2-propyl-1H-pyrimido[1,2-a]pyrido[3,2-e]pyrazine 6-oxide] | < 0.8 | < 0.8 | < 0.8 | < 0.8 | < 0.8 | < 0.8 | 7.4 | 2.5 | – | – | – | – | – | –
CC1(C)CN=C2C(c3ccccc3)=[N+]([O-])c3ccncc3N2C1 [Example 14, 2,3-Dihydro-2,2-dimethyl-5-phenyl-1H-pyrimido[1,2-a]pyrido[4,3-e]pyrazine 6-oxide] | 12.5 (≈ 40.8 µM) | 6.2 (≈ 20.2 µM) | 6.2 (≈ 20.2 µM) | 6.2 (≈ 20.2 µM) | 3.1 (≈ 10.1 µM) | 3.1 (≈ 10.1 µM) | – | – | 25 (≈ 81.6 µM) | 1.5 (≈ 4.9 µM) | 50 (≈ 163 µM) | 25 (≈ 81.6 µM) | > 100 | –
CC1CN=C2C(c3ccccc3)=[N+]([O-])c3cnccc3N2C1 (centres unmarked) [Example 34, 2,3-Dihydro-2-methyl-5-phenyl-1H-pyrimido[1,2-a]pyrido[3,4-e]pyrazine 6-oxide] | < 0.8 | < 0.8 | < 0.8 | < 0.8 | < 0.8 | < 0.8 | 9.3 | 2.7 | – | – | – | – | – | –
CC1(C)CN=C2C(c3ccccc3)=[N+]([O-])c3cnccc3N2C1 [Example 15, 2,3-Dihydro-2,2-dimethyl-5-phenyl-1H-pyrimido[1,2-a]pyrido[3,4-e]pyrazine 6-oxide] | < 0.8 | < 0.8 | < 0.8 | < 0.8 | 1.5 (≈ 4.9 µM) | < 0.8 | 13.4 | 4.1 | 12.5 (≈ 40.8 µM) | 1.5 (≈ 4.9 µM) | – | < 0.8 | > 100 | –
CC1(C)CN=C2C(c3ccc(Cl)cc3)=[N+]([O-])c3cccnc3N2C1 [Example 18, 2,3-Dihydro-5-(4-chlorophenyl)-2,2-dimethyl-1H-pyrimido[1,2-a]pyrido[3,2-e]pyrazine 6-oxide] | < 0.8 | < 0.8 | 1.5 (≈ 4.4 µM) | 1.5 (≈ 4.4 µM) | < 0.8 | < 0.8 | 53.4 | 17.4 | 6.2 (≈ 18.2 µM) | < 0.8 | – | < 0.8 | 100 (≈ 293 µM) | –
Cc1ccc(C2=[N+]([O-])c3cnccc3N3CC(C)(C)CN=C23)cc1 [Example 19, 2,3-Dihydro-2,2-dimethyl-5-(4-methylphenyl)-1H-pyrimido[1,2-a]pyrido[3,4-e]pyrazine 6-oxide] | 1.5 (≈ 4.68 µM) | 1.5 (≈ 4.68 µM) | < 0.8 | < 0.8 | 1.5 (≈ 4.68 µM) | 1.5 (≈ 4.68 µM) | 4.6 | 1.5 | 1.5 (≈ 4.68 µM) | – | 6.2 (≈ 19.4 µM) | < 0.8 | – | –
[O-][N+]1=C(c2ccccc2)C2=NCC3(CCCCC3)CN2c2ncccc21 [Example 29, Spiro[cyclohexane-1,2'-[2,3]-dihydro-[5]-phenyl-[1H]pyrimido[1,2-a]pyrido[3,2-e]pyrazine [6]-oxide]] | – | – | < 0.8 | < 0.8 | < 0.8 | < 0.8 | 10.1 | 3.5 | – | < 0.8 | 100 (≈ 289 µM) | 6.2 (≈ 17.9 µM) | > 100 | –
COc1ccc(C2=[N+]([O-])c3cnccc3N3CC(C)(C)CN=C23)cc1OC [Example 21] | < 0.8 | < 0.8 | 1.5 (≈ 4.09 µM) | < 0.8 | < 0.8 | < 0.8 | 6.8 | 2.5 | – | – | – | – | – | –
CCCC1(C)CN=C2C(c3ccccc3)=[N+]([O-])c3cnccc3N2C1 (centres unmarked) [Example 27, 2,3-Dihydro-2-methyl-5-phenyl-2-propyl-1H-pyrimido[1,2-a]pyrido[3,4-e]pyrazine 6-oxide] | 1.5 (≈ 4.49 µM) | 1.5 (≈ 4.49 µM) | < 0.8 | < 0.8 | 1.5 (≈ 4.49 µM) | 1.5 (≈ 4.49 µM) | 7.4 | 2.5 | – | – | – | – | – | –
CC1(C)CN=C2C(c3ccccc3)=[N+]([O-])c3cccnc3N2C1 [Example 16, 2,3-Dihydro-2,2-dimethyl-5-phenyl-1H-pyrimido[1,2-a]pyrido[3,2-e]pyrazine 6-oxide] | 3.1 (≈ 10.1 µM) | 3.1 (≈ 10.1 µM) | 1.5 (≈ 4.9 µM) | 1.5 (≈ 4.9 µM) | 1.5 (≈ 4.9 µM) | < 0.8 | 2.6 | 0.8 | – | < 0.8 | – | < 0.8 | 100 (≈ 326 µM) | 12.5 (≈ 40.8 µM)
CC1CN=C2C(c3ccccc3)=[N+]([O-])c3cccnc3N2C1 (centres unmarked) [Example 32, 2,3-Dihydro-2-methyl-5-phenyl-1H-pyrimido[1,2-a]pyrido[3,2-e]pyrazine 6-oxide] | < 0.8 | < 0.8 | < 0.8 | < 0.8 | < 0.8 | < 0.8 | 3.3 | 0.95 | 6.2 (≈ 21.2 µM) | – | < 0.8 | < 0.8 | – | –
